From ChEMBL document CHEMBL3044557, “Phytotoxicity Caused by Peroxidizing Herbicides Is Alleviated by 2-Substituted 4, 6-Bis(ethylamino)-1, 3, 5-triazines” (J Pestic Sci, 1997)
Activity calls are given as the source filed them. The calls are words filed in the database; no cut-off is given here.

Key:
Scenedesmus acutus [1] = test: Protection against oxyfluorfen-induced phytotoxicity in Scenedesmus acutus in light condition assessed as cell density per micro liter of packed cell volume after 16 hr (reference value: 2.1 ml); format: functional; design: unit not given here
Scenedesmus acutus [2] = test: Protection against chlorophthalim-induced phytotoxicity in Scenedesmus acutus in light condition assessed as increase of chlorophyll content after 16 hr (reference value: 0.94 ug/ml); format: functional
Scenedesmus acutus [3] = test: Protection against oxyfluorfen-induced phytotoxicity in Scenedesmus acutus in light condition assessed as reduction of ethane formation per ml of packed cell volume after 16 hr (reference value: 11.82 nM); format: functional
Scenedesmus acutus [4] = test: Protection against oxyfluorfen-induced phytotoxicity in Scenedesmus acutus in light condition assessed as increase of chlorophyll content after 16 hr (reference value: 0.94 ug/ml); format: functional
Scenedesmus acutus [5] = test: Protection against chlorophthalim-induced phytotoxicity in Scenedesmus acutus in light condition assessed as reduction of protoporphyrin-9 accumulation per ml of packed cell volume after 2 hr; format: functional
Scenedesmus acutus [6] = test: Protection against chlorophthalim-induced phytotoxicity in Scenedesmus acutus in light condition assessed as cell density per micro liter of packed cell volume after 16 hr (reference value: 2.1 ml); format: functional; design: unit not given here
Scenedesmus acutus [7] = test: Phytotoxicity against Scenedesmus acutus in dark condition assessed as effect on protoporphyrin-9 accumulation per ml of packed cell volume at 10^-5 M after 16 hr; format: functional, organism-based
Scenedesmus acutus [8] = test: Phytotoxicity against Scenedesmus acutus in light condition assessed as cell density per micro liter of packed cell volume after 16 hr (reference value: 3.4 ml); format: functional; design: unit not given here
Scenedesmus acutus [9] = test: Protection against chlorophthalim-induced phytotoxicity in Scenedesmus acutus in light condition assessed as reduction of ethane formation per ml of packed cell volume after 16 hr (reference value: 11.82 nM); format: functional
Scenedesmus acutus [10] = test: Protection against oxyfluorfen-induced phytotoxicity in Scenedesmus acutus in light condition assessed as reduction of protoporphyrin-9 accumulation per ml of packed cell volume after 2 hr; format: functional
Scenedesmus acutus [11] = test: Phytotoxicity against Scenedesmus acutus in light condition assessed as reduction of chlorophyll content after 16 hr (reference value: 20.25 ug/ml); format: functional
Scenedesmus acutus [12] = test: Phytotoxicity against Scenedesmus acutus in light condition assessed as effect on protoporphyrin-9 accumulation per ml of packed cell volume at 10^-5 M after 16 hr; format: functional, organism-based

| SMILES | Activity (Scenedesmus acutus [1]) | Activity (Scenedesmus acutus [2]) | Activity (Scenedesmus acutus [3]) | Activity (Scenedesmus acutus [4]) | Activity (Scenedesmus acutus [5]) | Activity (Scenedesmus acutus [6]) | Activity (Scenedesmus acutus [7]) | Activity (Scenedesmus acutus [8]) | Activity (Scenedesmus acutus [9]) | Activity (Scenedesmus acutus [10]) | Activity (Scenedesmus acutus [11]) | Activity (Scenedesmus acutus [12]) |
| --- | --- | --- | --- | --- | --- | --- | --- | --- | --- | --- | --- | --- |
| CCNc1nc(NCC)nc(-c2ccccc2)n1 | 2.2 | 0.46 µg/mL | 11.93 nM | 0.67 µg/mL | 133.96 nmol/mL | 2.3 | inactive | 3.2 | 13.64 nmol/mL | 69.9 nM | 19.08 µg/mL | inactive |
| CCNc1nc(Cl)nc(NCC)n1 [SIMAZINE] |  | 10.52 µg/mL | 2.82 nM | 13.05 µg/mL | 19.15 nmol/mL |  | inactive |  | 4.24 nmol/mL | 52.7 nM | 16.86 µg/mL | inactive |
| CCNc1nc(NCC)nc(C(F)(F)F)n1 | 2.4 | 11.04 µg/mL | 1.26 nM | 13.53 µg/mL | 38.65 nmol/mL | 2.4 | inactive | 2.6 | 3.2 nmol/mL | 31.24 nM | 16.7 µg/mL | inactive |
| CN(C)C(=O)Nc1ccc(Cl)c(Cl)c1 [DCMU] |  | 11.56 µg/mL |  | 14.57 µg/mL | 18.86 nmol/mL |  |  |  | 0.41 nmol/mL | 29.12 nM | 17.66 µg/mL |  |
| CCNc1nc(C)nc(NCC)n1 | 2.3 | 1.37 µg/mL | 11.93 nM | 1.05 µg/mL | 67.45 nmol/mL | 2.3 | inactive | 3 | 12.92 nmol/mL | 57.97 nM | 19.09 µg/mL | inactive |
| CCNc1nc(NCC)nc(SC)n1 [SIMETRYN] |  | 10.52 µg/mL | 0.4 nM | 14.46 µg/mL | 31.92 nmol/mL |  | inactive |  | 1.7 nmol/mL | 30.67 nM | 17.74 µg/mL | inactive |
| O=C1C2=C(CCCC2)C(=O)N1c1ccc(Cl)cc1 [CHLOROPHTHALIUM] |  | 0.99 µg/mL |  |  | 128.65 nmol/mL | 2.3 |  |  | 12.73 nmol/mL |  |  |  |
| CCNc1nc(NCC)nc(C(Cl)(Cl)Cl)n1 | 2.2 | 10.48 µg/mL | 1.63 nM | 13.31 µg/mL | 27.65 nmol/mL | 2.4 | inactive | 2.6 | 3.63 nmol/mL | 37.08 nM | 19.23 µg/mL | inactive |
| CCOc1cc(Oc2ccc(C(F)(F)F)cc2Cl)ccc1[N+](=O)[O-] [OXYFLUORFEN] |  |  | 11.82 nM | 0.94 µg/mL |  |  |  |  |  | 102.38 nM |  |  |
